According to patent US20260191853A1, “METHOD OF TREATING DRUG-INDUCED BRADYARRHYTHMIA” (OSAKA UNIVERSITY, priority 2022, published 2026):
“Also recorded” adds a separate entry of the source.

Assays:
[1] = tested on: human iPS cell-derived atrial myocytes; test: Siponimod-induced decrease in beating rate in human iPS cell-derived atrial myocytes (multi-electrode array); type: cell-based; settings: 0.1 μM compound (I) added after 0.1 μM siponimod, observed 10 minutes; FIG. 6
Protocol: Cryopreserved human iPS cell-derived atrial myocytes (Human iPSC-derived atrial cardiomyocytes, available from Axol Bioscience) were thawed and seeded at 1,400,000 cells/well on a fibronectin-coated 6-well plate, followed by culturing in an incubator at 37° C. and 5% CO2 for 11 days. During the culture, the entire amount of medium was changed every other day. After the elapse of 11 days, human iPS cell-derived atrial myocytes that started beating were removed from the plate and recovered with TrypLE Select Enzyme (available from ThermoFisher Scientific). The atrial myocytes were seeded at 25,000 cells/2 μL on a fibronectin-coated 6-well MEA Chip (60-6well MEA200/30iR-Ti-tcr, available from Multi Channel Systems) and cultured in an incubator at 37° C. and 5% CO2 for one hour. Thereafter, 400 μL of medium was added and cultured in an incubator at 37° C. and 5% CO2 for 13 days. During the culture, a half amount of the medium was changed every other day. After the elapse of […], the MEA Chip was set in a multi-electrode array system (MEA2100, available from Multi Channel Systems) to thereby obtain extracellular potentials under spontaneous beating. […] Data were analyzed with Labchart System (available from ADInstruments).
In FIG. 6, the measurements are shown as mean±standard error, and (I) denotes compound (I).

Hartley guinea pigs = test: Preventive effect on fingolimod-induced bradyarrhythmia in isoflurane-anesthetized guinea pig model; type: in vivo
Protocol: A solvent or compound (I) (free form) was administered by oral gavage at a dose of 1, 3, or 10 mg/kg (volume: 5 mL/kg) to Hartley guinea pigs (7 to 10 weeks old, male, available from Japan SLC, Inc.). After completion of the administration, each animal was subjected to anesthetic induction by inhalation of isoflurane (available from Pfizer Japan Inc.), and the animal was held on an operating table having a heater function. The trachea was incised, and a tracheal cannula (KN-375, available from Natsume Seisakusho Co., Ltd.) was inserted. The tracheal cannula was connected to a ventilator (SN-480-7, available from Shinano Seisakusho Co., Ltd.), and artificial respiration was controlled by supplying 100% oxygen at a volume of 10 mL and a ventilation rate of 60 times/minute. The solvent used was 0.5 w/v % methyl cellulose 400 solution (available from FUJIFILM Wako Pure Chemical Corporation). Isoflurane (available from Pfizer Japan Inc.) anesthesia (about 1 to 4%, carrier gas: 100% oxygen) was used for maintenance of anesthesia. A catheter (BD intramedic polyethylene tubing PE50, available from Becton, Dickinson and Company) charged with 50 units/mL heparin (available from AY PHARMACEUTICALS CO., LTD.) was inserted into each of the carotid artery and the jugular vein and placed in the blood vessel. Systemic blood pressure was measured with a high-sensitivity DC amplifier (AD-611J, available from NIHON KOHDEN CORPORATION) via the catheter placed in the carotid artery. Electrodes were attached to the body surface, and a body surface electrocardiogram was measured with a high-sensitivity amplifier (AB-611J, available from NIHON KOHDEN CORPORATION). Blood pressure and electrocardiogram data were acquired and analyzed with PowerLab/Labchart system (available from ADInstruments). Analysis items are systolic blood pressure, diastolic blood pressure, average blood pressure, heart rate, P-wave width, PR interval, QRS width, QT interval, and corrected QT interval. Corrected QT interval was calculated using the fridericia formula (QTc=QT interval/RR interval^1/3). After stabilization of each parameter, fingolimod hydrochloride (synthesized with reference to WO 2000/027798) was continuously administered intravenously at 0.1 mg/kg for 10 minutes via the catheter placed in the jugular vein, followed by observation of the presence or absence of the onset of bradyarrhythmia for 60 minutes. The solvent used was saline (available from Otsuka Pharmaceutical Factory, Inc.). Data were recorded and blood was collected 5, 10, 15, 20, 30, and 60 minutes after initiation of administration of fingolimod hydrochloride. The observation was terminated 60 minutes after initiation of the administration, and the animal was euthanized by exsanguination or intravenous administration of a large amount of pentobarbital or saturated potassium chloride solution under isoflurane anesthesia. Data were analyzed for atrial beating rate over time, ventricular beating rate over time, electrocardiographic parameters, the presence or absence of the onset of atrioventricular block, and plasma concentrations of compound (I), fingolimod, and fingolimod phosphorylated form. The plasma was collected by centrifuging the blood and cryopreserved at about −20° C. After thawing of the plasma, plasma drug concentrations were measured using LC/MS/MS after deproteinization with acetonitrile.
Atrioventricular block was defined as follows.
Second-degree atrioventricular block: atrial activation wave (P wave) is normal, which is followed by or not followed by ventricular activation wave (QRS wave).
Third-degree atrioventricular block: there is no electrical conduction between the atrium and the ventricle, and atrial and ventricular activation waves are generated independently, resulting in atrioventricular dissociation.
In FIG. 1, the measurements are shown as mean±standard error. […]

For `Cc1cc(CO)nc2cc3c(cc12)OC(C)(C)[C@H](O)[C@H]3NCCc1ccccc1` [Compound (I), (3R,4S)-7-Hydroxymethyl-2,2,9-trimethyl-4-(phenethylamino)-3,4-dihydro-2H-pyrano[2,3-g]quinoline-3-ol], the “effect on siponimod-induced decrease in beating rate” value [1] was “increased the beating rate and improved bradyarrhythmia”, the “cases in which fingolimod-induced atrioventricular block was not observed” value (Hartley guinea pigs; 1 mg/kg oral gavage, four cases per group) was 75% and the “fingolimod-induced bradycardia (ventricular beating rate)” value (Hartley guinea pigs; 3 mg/kg oral gavage, fingolimod hydrochloride 0.1 mg/kg i.v.) was “almost restored”. For the same compound, the “cases in which fingolimod-induced atrioventricular block was not observed” value (Hartley guinea pigs; 3 mg/kg oral gavage, four cases per group) was 75%, the “fingolimod-induced bradycardia (ventricular beating rate / heart rate)” value (Hartley guinea pigs; 10 mg/kg oral gavage, fingolimod hydrochloride 0.1 mg/kg i.v.) was “completely restored; also recorded: completely resolved” and the “cases in which fingolimod-induced atrioventricular block was suppressed” value (Hartley guinea pigs; 10 mg/kg oral gavage, four cases per group) was 100%. The “onset of fingolimod-induced bradyarrhythmia (atrioventricular block)” value (Hartley guinea pigs; 1, 3, 10 mg/kg oral gavage, FIG. 1 and FIG. 2) was “prevented the onset of fingolimod-induced bradyarrhythmia (atrioventricular block) in a dose-dependent manner”, the “fingolimod-induced bradycardia (ventricular beating rate / heart rate)” value (Hartley guinea pigs; compound (I) 1, 3, 10 mg/kg oral gavage before fingolimod hydrochloride 0.1 mg/kg i.v. over 10 min, FIG. 1) was “improved in a dose-dependent manner; also recorded: prevented a reduction in heart rate” and the “fingolimod-induced prolongation of QT time” value (Hartley guinea pigs; compound (I) oral gavage 1-10 mg/kg) was “almost completely suppressed”.
